Values quoted from earlier work, collected in patent US20030170847A1, “Genes involved in isoprenoid compound production” (priority 2001, published 2003).

Columns and labels:
[1] = system: CrtL-type of lycopene cyclases; details: Cunningham et al., The Plant Cell 1994
[2] = system: nonphotosynthetic bacterial CrtY-type of lycopene cyclases; details: Cunningham et al., The Plant Cell 1994

Row | Structure (SMILES) | inhibition of CrtL-type of lycopene cyclases [1] | inhibition of CrtY-type of lycopene cyclases [2]
1 | CCN(CC)CCSc1ccc(Cl)cc1.Cl [CPTA, 2-(4-chlorophenylthio)-triethylamine hydrochloride] | specifically inhibit | not
2 | CCN(CC)CCOc1ccc(C)cc1.Cl [MPTA, 2-(4-methylphenoxy)-triethylamine hydrochloride] | specifically inhibit | not
